This is an account of results in PMC10487843, “Evaluation of Anticancer and Anti-Inflammatory Activities of Some Synthetic Rearranged Abietanes” (International Journal of Molecular Sciences, 2023).

Data set [1] relates to HT29 cells. The data set can be described thus: Hoechst-stained fluorescence microscopy (nuclear morphology). The note with it: HT29, 72 h. The class given is cell-based, human. The source says:
To assess the apoptosis induction capacity of compounds 5 and 13 on HT29 cells, we performed Hoechst […] nuclear staining, a well-established method for visualizing the morphological changes associated with apoptosis. Two principal morphological characteristics can be observed in the apoptosis process, chromatin condensation and nuclei fragmentation. Hoechst is a dye capable of penetrating cells and binding to double-stranded DNA, emitting blue light that can be visualized by using fluorescence microscopy.
The morphological changes were analyzed using Hoechst-stained fluorescence microscopy. For the analysis, 15 × 10^4 HT29 cells were plated on a coverslip within a 24-well plate. […] The cells were washed twice with PBS, treated with cold MeOH for 3 min, washed again with PBS, and then incubated in 500 μL of Hoechst solution (50 ng/mL) in PBS for 15 min in the dark. Finally, the samples were visualized through fluorescent microscopy (DMRB, Leica Microsystems, Wetzlar, Germany) under a DAPI filter.

Data set [2] is described as follows: RAW 264.7 cell viability (MTT). Type of data set: cell-based, murine. To be noted: mouse, RAW 264.7 monocyte/macrophage cells; RAW 264.7, MTT, 0–100 μg/mL; read-out: IC50 (cytotoxicity). As for the experimental part:
To evaluate the cytotoxic effects of the synthesized abietanes (5, 7, 13, 17, and 19) on RAW 264.7 monocyte/macrophage murine cells and to establish sub-cytotoxic concentrations for anti-inflammatory testing, we conducted cell viability assays using the MTT method. Each compound was tested at increasing concentration levels (0–100 μg/mL), and the IC50 values were determined by interpolation in the sigmoidal cytotoxicity curves (Figure 8). […] Additionally, sub-cytotoxic concentrations corresponding to ¾ IC50, ½ IC50, and ¼ IC50 were determined and selected for subsequent anti-inflammatory assays, ensuring that the observed effects were specifically attributed to the anti-inflammatory properties of the compounds rather than cytotoxicity. The human colorectal adenocarcinoma cell line HT29 (ECACC no. 9172201; ATCC no. HTB-38), the human hepatocarcinoma cell line HepG2 (ECACC no. 85011430), the mouse melanoma cells B16–F10 (ATCC no. CRL-6475), and the murine monocyte/macrophage like RAW 264.7 cell line (ATCC no, TIB-71) were obtained from the cell bank of the University of Granada, Spain. The tumor cell lines were cultured in DMEM (Dulbecco’s modified Eagle’s medium) supplemented with 2 mM glutamine, 10% heat-inactivated FCS (fetal calf serum), and 50 μg/mL of gentamicin (for all cancer cell lines). The RAW 264.7 cell line was cultured in RPMI1640 medium, supplemented with 2 mM glutamine, 10% heat-inactivated FCS, and 50 μg/mL of gentamicin. All cell lines were incubated at 37 °C, in an atmosphere of 5% CO2 and 95% humidity. The culture media were changed every 48 h, and the confluent cultures were separated with a trypsin solution (0.25% EDTA). In all experiments, monolayer cells were grown to 80–90% confluence in sterile cell culture flasks. The effects of the compounds on the cell viability were established using the MTT method (Sigma, St. Louis, MO, USA). The cytotoxicity of the compounds was assessed by measuring the absorbance of MTT dye staining of metabolically competent cells. The cells were cultivated in 96-well plates at 6.0 × 10^3 cells/mL for the HT29 and RAW 264.7 cell lines, at 5.0 × 10^3 cells/mL for B16–F10 cells, and 15.0 × 10^3 cells/mL for the HepG2 cell line, with a final volume of 200 μL per well being incubated with the different products (0–100 μg/mL). After 72 h, 100 μL of MTT solution (0.5 mg/mL) in 50% of PBS and 50% of the medium was added to each well. Following incubation for 1.5 h, formazan was resuspended in 100 μL of DMSO, and each concentration was tested in triplicate. The cell viability relative to the untreated control cells was determined by measuring the absorbance at 570 nm using an ELISA plate reader (Tecan Sunrise MR20–301, TECAN, Grödig, Austria).

Data set [3] has as its system HT29 cells. The data set can be described thus: Annexin V-FITC/PI flow cytometry apoptosis analysis. The class given is cell-based, human. The note with it: HT29, 72 h; for total apoptosis, % of cell population: control 9%. From the text:
To further investigate the potential mechanisms underlying the cytotoxic and cytostatic effects of compounds 5 and 13 on HT29 cells, Annexin V–FITC/PI double staining along with […] cell sorter (FACS) cytometry analysis was employed for determinate apoptosis induction. This assay allowed for the distinction of different cell populations, including normal cells (Annexin V− PI−), early apoptotic cells (Annexin V+ PI−), late apoptotic cells (Annexin V+ PI+), and necrotic cells (Annexin V− PI+).
These assays on the HT29 cell line were conducted 72 h after treatment with the selected rearranged abietanes at their corresponding IC50 and IC80 concentrations.
Flow cytometry was used to detect annexin V-FICT and PI double staining, to quantify the pro-apoptotic impact of compounds 5 and 13. Apoptosis was assessed through flow cytometry using a FACScan flow cytometer (Coulter Corporation, Hialeah, FL, USA). In this assay, 5 × 10^4 HT29 cells were plated in 24-well plates with 1.5 mL of medium and incubated for 24 h. The cells were then treated with the selected compounds in triplicate for 24, 48, and 72 h at their corresponding IC50 and IC80 concentrations. The cells were harvested and resuspended in a binding buffer (10 mM HEPES/NaOH with pH 7.4, 140 mM NaCl, and 2.5 mM CaCl2). Subsequently, Annexin V-FITC conjugate (1 µg/mL) was added and incubated for 15 min in the dark at room temperature. The cells were stained with 5 µL of 1 mg/mL PI solution before analysis. Approximately 10 × 10^3 cells were analyzed in each experiment; the experiments were performed twice, each with three replications per assay.
In general terms: In flow cytometry, cells or beads pass a laser one at a time.

In brackets after ≈: the same amount, converted by molar mass.

Consider `CC(C)C1=CC2=C(C(=O)C1=O)C1=CC(=O)CC(C)(C)[C@@]1(C)C=C2` [Compound 5, Pygmaeocin B], for which the “nuclear morphology, Hoechst staining” value in the data set on HT29 cells [1] (IC50 concentration) was “loss of normal nuclear architecture and chromatin condensation”. In addition, the “nuclear morphology, Hoechst staining” value with HT29 cells [1] (IC80 concentration) is “formation of pyknotic or contracted nuclei followed by fragmentation into apoptotic bodies”. Besides, the IC50 (as a rule, the concentration that inhibits the measured activity by half) at 72 h in data set [2] was determined as 0.14 ± 0.09 µg/mL (≈ 0.451 µM). In addition, in the data set on HT29 cells [3] (IC50 concentration), the “early apoptosis, % of cell population” value came to 5%; the “late apoptosis, % of cell population” value amounted to 17%; the “total apoptosis, % of cell population” value turned out to be 22%. The “percentage of necrotic cells” value in the data set with HT29 cells [3] (IC50 concentration, control 3%) was determined as 15%. For the same compound, in the data set on HT29 cells [3] (IC80 concentration), the “early apoptosis, % of cell population” value stood at 12%; the “late apoptosis, % of cell population” value is recorded as 23%; the “total apoptosis, % of cell population” value is on record as 35%.

For `CC(C)C1=CC2=C(C(=O)C1=O)[C@@]1(C)CCCC(C)(C)[C@@H]1CC2` [Compound 13], the “nuclear morphology, Hoechst staining” value is “loss of normal nuclear architecture and chromatin condensation” with HT29 cells [1] (IC50 concentration); “formation of pyknotic or contracted nuclei followed by fragmentation into apoptotic bodies” in the data set on HT29 cells [1] (IC80 concentration). Further, in data set [2], the IC50 at 72 h was found to be 8.18 ± 1.86 µg/mL (≈ 27.2 µM). In addition, the entries for the “early apoptosis, % of cell population” value in the data set with HT29 cells [3] (IC50 concentration) and with HT29 cells [3] (IC80 concentration) were 6% and 7%, respectively. Also, the “late apoptosis, % of cell population” value in the data set on HT29 cells [3] (IC50 concentration) is recorded as 12%; with HT29 cells [3] (IC80 concentration), 14%. Moreover, the “total apoptosis, % of cell population” value was 18% with HT29 cells [3] (IC50 concentration) and 21% in the data set with HT29 cells [3] (IC80 concentration).
